These results are taken from US20130165475A1, “DEUTERIUM-ENRICHED HETEROCYCLIC COMPOUNDS AS KINASE INHIBITORS” (ASCEPION PHARMACEUTICALS, INC., priority 2010, published 2013).

For series [1], the system named is Rat liver microsome. The series is described as follows: Liver microsomal stability assay, rat. The series is classed as in vitro ADME. Also noted: key: A: the percentage of a compound remains is greater than that of its deuterium non-enriched counterpart; B: a result otherwise. Conditions: 40 μM, 37° C., 30 min, 1 mg/ml microsome proteins; class relative to deuterium non-enriched counterpart. The procedure: (§1) A standard liver microsomal stability assay can be used to test or screen the compounds of this invention and to identify compounds with enhanced metabolic stability due to the enrichment of deuterium in the compounds. Liver microsome proteins prepared from different species such as mouse and rat were obtained from a commercial source (Research Institute for Liver Diseases, Shanghai, China). The assay was conducted in 1.5% potassium hydrogenphosphate (K2HPO4) in the presence of liver microsome proteins at 1 mg/ml and supplemented with an […] (3.3 mM NADPH, 3.3 mM glucose-6-phosphate, 6 units/ml G6PDase, and 3.3 mM magnesium chloride). Test compound was added into the assay mixture to a final concentration of 40 μM and incubated at 37° C. for 0 or 30 minutes. The reaction was stopped by the addition of 20 μM Bifonazole/CAN. Samples were then centrifuged at 14000 rpm for 10 minutes to precipitate proteins. Supernatant were then transferred to microcentrifuge tubes and subject to reverse phase HPLC analysis to determine the concentration of test compound.
(§2) The percentage of compounds that remained in the assay reactions after a thirty-minute incubation at 37° C. is calculated as the ratio between the amount of compound remained after a thirty-minute and that after a zero-minute incubation.
For orientation: Liver microsomes are vesicles of endoplasmic reticulum, rich in cytochrome P450 enzymes.

Series [2] relates to Mouse liver microsome. The series is described as follows: Liver microsomal stability assay, mouse. Type of series: in vitro ADME. Also noted: key: A: the percentage of a compound remains is greater than that of its deuterium non-enriched counterpart; B: a result otherwise. Conditions: 40 μM, 37° C., 30 min, 1 mg/ml microsome proteins; class relative to deuterium non-enriched counterpart. The procedure:
as §1, §2

For series [3], the target named is T1, VEGFR2 (Homo sapiens, UniProt P35968).
T1 construct: expressed in transfected cells; host or cells: CHO cells
The series is described as follows: VEGFR2 cell-based assay (ELISA, phosphor-/total VEGFR2 in transfected CHO cells). The following applies: compound at 100 nM; CHO cells transfected with full length VEGFR2; FBS stimulation; read-out: % VEGFR2 kinase activity remains. An excerpt: A standard cell-based assay for VEGFR2 kinase activity can be used to test or screen the compounds of this invention and to identify VEGFR2 antagonists. In this example, ELISA kits (R&D Systems, Inc., Minneapolis, Minn. 55413, USA) were used.
The activity of VEGFR2 in cells depended on its autophosphorylation level by various factors including growth factors. In order to induce the cell to produce VEGFR2, full length of VEGFR2 sequence was cloned into PC-DNA3.1 vector, the plasmid was then transfected into CHO cells. After 48 hours, the expression of VEGFR2 in transfected CHO cells was confirmed by regular western blotting.
A compound to be tested was first dissolved in DMSO to a concentration of 10 mM and stored at −20° C. One day before the test, CHO cells transfected with full length VEGFR2 plasmid were grown in Dulbecco's Modified Eagle Medium (DMEM) without the presence of serum. On the day of the test, the compounds with various concentrations in DMSO (from 0.5 nM to 500 nM) were added into DMEM. Two hours later, 20% of FBS (Fetal Bovine Serum) was added into the medium to stimulate the production of phosphor-VEGFR2. Cell lysate from approximately 5×10^5 transfected CHO cells were reacted with anti-phosphor VEGFR2 or anti-total VEGFR2 antibody in 96-well plates, in the presence of detection antibody. The phosphor-VEGFR2 or total VEGFR2 were detected with Streptavidin-HRP(R&D Systems), followed by chemiluminescent detection. The level of VEGFR2 kinase activity was quantified as the ratio between the amount of phosphor- and that of total VEGFR2 proteins.

Series [4] deals with T2, c-Met (Homo sapiens, UniProt P08581).
T2 construct: expressed in transfected cells; host or cells: CHO cells
The series is described as follows: c-Met cell-based assay (ELISA, phosphor-/total c-Met in transfected CHO cells, HGF stimulated). The following applies: compound at 100 nM; CHO cells transfected with full length c-Met; HGF 100 ng/mL. An excerpt:
A standard cell-based assay for c-Met kinase activity can be used to test or screen the compounds of this invention and to identify c-Met antagonists. In this example, ELISA kits (R&D Systems, Inc., Minneapolis, Minn. 55413, USA) were used.
The activity of c-Met in cells depended on its autophosphorylation level by it specific growth factor-Hepatocyte growth factor (HGF). In order to induce the cell to produce c-Met, full length of c-Met sequence was cloned into PC-DNA3.1 vector, the plasmid was then transfected into CHO cells. After 48 hours, the expression of c-Met in transfected CHO cells was confirmed by regular western blotting.
A compound to be tested was first dissolved in DMSO to a concentration of 10 mM and stored at −20° C. One day before the screening, CHO cells transfected with full length c-Met plasmid were grown in DMEM medium without the presence of serum. On the day of screening procedure, the compounds with various concentration in DMSO (from 0.5 nM to 500 nM) were added into DMEM medium, two hours later, Hepatocyte growth factor (HGF) was added into the medium at the concentration of 100 ng/mL to stimulate the production of phosphor-c-Met. Cell lysate from approximately 5×10^5 transfected CHO cells were reacted with anti-phosphor c-Met or anti-total c-Met antibody in 96 well plates, in the presence of detection antibody. The phosphor-c-Met or total c-Met were detected with Streptavidin-HRP (R&D Systems), followed by chemiluminescent detection. The level of c-Met kinase activity was quantified as the ratio between the amount of phosphor- and that of total c-Met proteins.
On the technique in general: In an ELISA, binding on a coated surface is turned into a signal by an enzyme label.

Molecules are shown by their SMILES. Counter-ions that a name gives are not always drawn.

T2 sequence (P08581 25-1390): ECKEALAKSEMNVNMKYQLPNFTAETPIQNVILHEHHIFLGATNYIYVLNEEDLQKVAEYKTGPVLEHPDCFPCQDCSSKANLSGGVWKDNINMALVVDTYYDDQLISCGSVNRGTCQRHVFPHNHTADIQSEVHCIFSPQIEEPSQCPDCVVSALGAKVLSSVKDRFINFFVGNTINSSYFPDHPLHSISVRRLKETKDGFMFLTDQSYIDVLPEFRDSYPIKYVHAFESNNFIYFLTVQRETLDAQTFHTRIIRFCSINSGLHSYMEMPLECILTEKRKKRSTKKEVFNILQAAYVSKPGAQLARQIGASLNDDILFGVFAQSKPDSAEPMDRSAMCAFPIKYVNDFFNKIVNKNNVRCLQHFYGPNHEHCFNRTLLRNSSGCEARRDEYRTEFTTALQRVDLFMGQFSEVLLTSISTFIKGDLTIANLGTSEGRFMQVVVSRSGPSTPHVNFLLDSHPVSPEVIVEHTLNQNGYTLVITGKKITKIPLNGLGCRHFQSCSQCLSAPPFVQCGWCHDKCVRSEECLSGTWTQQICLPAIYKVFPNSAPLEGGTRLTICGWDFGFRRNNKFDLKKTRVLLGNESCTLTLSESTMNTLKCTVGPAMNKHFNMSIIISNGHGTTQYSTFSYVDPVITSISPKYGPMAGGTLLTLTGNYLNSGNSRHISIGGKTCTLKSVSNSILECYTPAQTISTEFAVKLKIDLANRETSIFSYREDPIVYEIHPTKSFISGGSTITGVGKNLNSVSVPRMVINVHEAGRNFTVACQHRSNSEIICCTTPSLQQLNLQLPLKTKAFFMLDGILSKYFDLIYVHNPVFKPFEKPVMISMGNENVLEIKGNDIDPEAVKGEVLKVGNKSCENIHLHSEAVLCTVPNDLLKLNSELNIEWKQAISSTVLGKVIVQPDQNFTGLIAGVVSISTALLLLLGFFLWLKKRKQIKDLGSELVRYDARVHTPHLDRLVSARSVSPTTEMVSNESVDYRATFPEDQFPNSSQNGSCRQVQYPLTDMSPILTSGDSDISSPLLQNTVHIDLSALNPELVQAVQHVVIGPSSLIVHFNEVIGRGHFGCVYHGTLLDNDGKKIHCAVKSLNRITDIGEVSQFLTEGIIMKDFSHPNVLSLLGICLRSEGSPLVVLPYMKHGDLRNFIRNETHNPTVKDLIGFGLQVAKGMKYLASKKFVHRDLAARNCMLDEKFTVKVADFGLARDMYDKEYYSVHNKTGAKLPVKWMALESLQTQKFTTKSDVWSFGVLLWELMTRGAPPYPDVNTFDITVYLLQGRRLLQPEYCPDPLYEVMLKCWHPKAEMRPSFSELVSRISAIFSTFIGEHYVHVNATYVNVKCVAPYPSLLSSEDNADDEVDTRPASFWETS
T1 sequence (P35968 20-1356): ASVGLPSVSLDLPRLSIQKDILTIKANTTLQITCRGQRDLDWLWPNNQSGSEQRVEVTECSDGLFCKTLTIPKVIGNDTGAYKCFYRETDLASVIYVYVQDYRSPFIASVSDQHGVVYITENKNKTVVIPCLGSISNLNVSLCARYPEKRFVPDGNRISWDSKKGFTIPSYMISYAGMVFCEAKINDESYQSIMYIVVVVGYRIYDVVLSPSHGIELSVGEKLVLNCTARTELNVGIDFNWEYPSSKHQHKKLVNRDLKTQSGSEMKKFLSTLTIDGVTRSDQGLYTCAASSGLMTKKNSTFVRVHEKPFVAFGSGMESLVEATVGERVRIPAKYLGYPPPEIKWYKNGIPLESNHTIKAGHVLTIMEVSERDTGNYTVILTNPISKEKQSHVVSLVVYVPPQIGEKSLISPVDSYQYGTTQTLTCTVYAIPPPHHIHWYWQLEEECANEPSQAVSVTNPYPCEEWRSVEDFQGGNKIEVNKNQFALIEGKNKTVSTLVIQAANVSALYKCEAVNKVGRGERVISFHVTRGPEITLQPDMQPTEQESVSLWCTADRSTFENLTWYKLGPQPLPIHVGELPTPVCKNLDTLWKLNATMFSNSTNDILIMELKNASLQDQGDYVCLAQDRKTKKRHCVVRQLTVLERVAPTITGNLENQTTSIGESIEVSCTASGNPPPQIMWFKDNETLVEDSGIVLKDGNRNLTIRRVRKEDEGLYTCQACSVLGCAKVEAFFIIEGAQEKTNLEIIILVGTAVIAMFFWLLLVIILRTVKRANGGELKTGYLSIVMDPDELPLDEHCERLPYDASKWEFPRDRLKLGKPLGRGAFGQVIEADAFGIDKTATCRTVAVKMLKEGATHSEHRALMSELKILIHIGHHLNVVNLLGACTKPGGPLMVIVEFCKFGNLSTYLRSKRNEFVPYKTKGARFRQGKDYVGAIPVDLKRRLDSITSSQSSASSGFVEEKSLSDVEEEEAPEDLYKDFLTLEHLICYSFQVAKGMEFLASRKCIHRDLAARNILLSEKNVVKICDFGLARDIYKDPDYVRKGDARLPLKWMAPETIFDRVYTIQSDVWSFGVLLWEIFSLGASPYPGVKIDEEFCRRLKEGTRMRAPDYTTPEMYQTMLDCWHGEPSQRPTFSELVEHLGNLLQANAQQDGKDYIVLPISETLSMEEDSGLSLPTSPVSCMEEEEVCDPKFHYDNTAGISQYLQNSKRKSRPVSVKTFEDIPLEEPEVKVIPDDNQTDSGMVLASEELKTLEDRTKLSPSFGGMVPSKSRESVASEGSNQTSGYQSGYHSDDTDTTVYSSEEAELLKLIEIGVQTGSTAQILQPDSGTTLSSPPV

Take `Cl.[2H]C([2H])(c1ccnc(N)c1)n1ccc2c(NC(=O)Nc3cc(Cl)ccc3OC)cccc21` [Example 2, 1-[1-[(2-amino-4-pyridyl)-dideuteriomethyl]indol-4-yl]-3-(5-chloro-2-methoxyphenyl)urea hydrochloride]: in series [1], the “% of compound remained at the 30th minutes, Rat liver microsome” value (“% of compound remained … Rat liver microsome” below) is given as “A”. Also, in series [2], the “% of compound remained at the 30th minutes, Mouse liver microsome” value is recorded as “A”. In addition, the remaining activity at 0.1 µM in series [3] was less than 70%. Besides, the “% C-Met kinase activity remains” value in series [4] is recorded as “B (the percentage is greater or equal to 70%)”.

For `[2H]C([2H])(c1ccnc2[nH]ccc12)N1CCc2c(NC(=O)Nc3cc(Cl)ccc3OC)cccc21` [Example 9, 1-(5-Chloro-2-methoxyphenyl)-3-[1-[dideuterio(1H-pyrrolo[2,3-b]pyridin-4-yl)methyl]indolin-4-yl]urea hydrochloride], the “% of compound remained … Rat liver microsome” value in series [1] is recorded as “A”. For the same molecule, in series [2], the “% of compound remained at the 30th minutes, Mouse liver microsome” value is on record as “A”. Besides, the remaining activity at 0.1 µM in series [3] was less than 70%. Besides, the “% C-Met kinase activity remains” value in series [4] is “A (the percentage of kinase activity remains is below 70%)”.

As for `[2H]C(c1c[nH]c2ncccc12)n1ccc2c(NC(=O)Nc3cc(Cl)ccc3F)cccc21` (stereo not drawn) [Example 20, 1-(5-chloro-2-fluorophenyl)-3-[1-[deuterio(1H-pyrrolo[2,3-b]pyridin-3-yl)methyl]indol-4-yl]urea], in series [1], the “% of compound remained … Rat liver microsome” value is “A”. In series [2], the “% of compound remained at the 30th minutes, Mouse liver microsome” value is listed as “B”. For the same molecule, in series [3], the remaining activity at 0.1 µM is less than 70%. In addition, in series [4], the “% C-Met kinase activity remains” value is given as “A (the percentage of kinase activity remains is below 70%)”.

`[2H]C(c1c[nH]c2ncccc12)n1ccc2c(NC(=O)Nc3cccc(C)c3)cccc21` (stereo not drawn) [Example 22, 1-[1-[deuterio(1H-pyrrolo[2,3-b]pyridin-3-yl)methyl]indol-4-yl]-3-(m-tolyl)urea]: the “% of compound remained … Rat liver microsome” value in series [1] is listed as “B”. Further, the “% of compound remained at the 30th minutes, Mouse liver microsome” value in series [2] is on record as “A”. Moreover, the remaining activity at 0.1 µM in series [3] was less than 70%. The “% C-Met kinase activity remains” value in series [4] is given as “A (the percentage of kinase activity remains is below 70%)”.

As to `[2H]C([2H])(c1ccnc2[nH]ccc12)n1ccc2c(NC(=O)Nc3cccc(C)c3)cccc21` [Example 14, 1-[1-[dideuterio(1H-pyrrolo[2,3-b]pyridin-4-yl)methyl]indol-4-yl]-3-(m-tolyl)urea hydrochloride], the “% of compound remained … Rat liver microsome” value in series [1] is “A”. The “% of compound remained at the 30th minutes, Mouse liver microsome” value in series [2] is “A”. Further, in series [3], the remaining activity at 0.1 µM is less than 70%. Besides, in series [4], the “% C-Met kinase activity remains” value is recorded as “A (the percentage of kinase activity remains is below 70%)”.

In the case of `[2H]C(c1c[nH]c2ncccc12)n1ccc2c(NC(=O)Nc3cc(Cl)ccc3OC([2H])([2H])[2H])cccc21` (stereo not drawn) [Example 16, 1-[5-chloro-2-(trideuteriomethoxy)phenyl]-3-[1-[deuterio(1H-pyrrolo[2,3-b]pyridin-3-yl)methyl]indol-4-yl]urea], the “% of compound remained … Rat liver microsome” value in series [1] is “A”. The “% of compound remained at the 30th minutes, Mouse liver microsome” value in series [2] is listed as “A”. In addition, the remaining activity at 0.1 µM in series [3] was less than 70%. In series [4], the “% C-Met kinase activity remains” value is given as “A (the percentage of kinase activity remains is below 70%)”.

On to `[2H]C(c1c[nH]c2ncccc12)N1CCc2c(NC(=O)Nc3cc(Cl)ccc3OC([2H])([2H])[2H])cccc21` (stereo not drawn) [Example 15, 1-[5-Chloro-2-(trideuteriomethoxy)phenyl]-3-[1-[deuterio(1H-pyrrolo[2,3-b]pyridin-3-yl)methyl]indolin-4-yl]urea], for which the “% of compound remained … Rat liver microsome” value in series [1] is “A”. The “% of compound remained at the 30th minutes, Mouse liver microsome” value in series [2] was “B”. Moreover, in series [3], the remaining activity at 0.1 µM is less than 70%. Also, the “% C-Met kinase activity remains” value in series [4] is listed as “A (the percentage of kinase activity remains is below 70%)”.

In the case of `[2H]C([2H])([2H])Oc1ccc(Cl)cc1NC(=O)Nc1cccc2c1CCN2Cc1ccnc(N)c1` [Example 5, 1-[1-[(2-Amino-4-pyridyl)methyl]indolin-4-yl]-3-[5-chloro-2-(trideuteriomethoxy)phenyl]urea], the “% of compound remained … Rat liver microsome” value in series [1] is “A”. Moreover, in series [2], the “% of compound remained at the 30th minutes, Mouse liver microsome” value is “B”. For the same molecule, in series [3], the remaining activity at 0.1 µM was less than 70%. In addition, in series [4], the “% C-Met kinase activity remains” value is “A (the percentage of kinase activity remains is below 70%)”.

On to `[2H]C(c1c[nH]c2ncccc12)N1CCc2c(NC(=O)Nc3cc(Cl)ccc3F)cccc21` (stereo not drawn) [Example 19, 1-(5-Chloro-2-fluorophenyl)-3-[1-[deuterio(1H-pyrrolo[2,3-b]pyridin-3-yl)methyl]indolin-4-yl]urea], for which the “% of compound remained … Rat liver microsome” value in series [1] is “B”. For the same molecule, in series [2], the “% of compound remained at the 30th minutes, Mouse liver microsome” value is “B”. In series [3], the remaining activity at 0.1 µM was less than 70%. In series [4], the “% C-Met kinase activity remains” value is recorded as “B (the percentage is greater or equal to 70%)”.

`[2H]C([2H])([2H])Oc1ccc(Cl)cc1NC(=O)Nc1cccc2c1CCN2C([2H])([2H])c1ccnc(N)c1` [Example 3, 1-[1-[(2-Amino-4-pyridyl)-dideuteriomethyl]indolin-4-yl]-3-[5-chloro-2-(trideuteriomethoxy)phenyl]urea]: the “% of compound remained … Rat liver microsome” value in series [1] is on record as “A”. In addition, in series [2], the “% of compound remained at the 30th minutes, Mouse liver microsome” value is on record as “B”. The remaining activity at 0.1 µM in series [3] was less than 70%. Also, the “% C-Met kinase activity remains” value in series [4] was “A (the percentage of kinase activity remains is below 70%)”.

As to `[2H]C([2H])([2H])Oc1ccc(Cl)cc1NC(=O)Nc1cccc2c1ccn2Cc1ccnc(N)c1` [Example 6, 1-[1-[(2-amino-4-pyridyl)methyl]indol-4-yl]-3-[5-chloro-2-(trideuteriomethoxy)phenyl]urea], the “% of compound remained … Rat liver microsome” value in series [1] is “A”. In addition, in series [2], the “% of compound remained at the 30th minutes, Mouse liver microsome” value was “B”. Besides, the remaining activity at 0.1 µM in series [3] is not below 70%. Further, the “% C-Met kinase activity remains” value in series [4] was “A (the percentage of kinase activity remains is below 70%)”.

Regarding `[2H]C(c1c[nH]c2ncccc12)N1CCc2c(NC(=O)Nc3cccc(C)c3)cccc21` (stereo not drawn) [Example 21, 1-[1-[Deuterio(1H-pyrrolo[2,3-b]pyridin-3-yl)methyl]indolin-4-yl]-3-(m-tolyl)urea], the “% of compound remained … Rat liver microsome” value in series [1] is “A”. Further, the “% of compound remained at the 30th minutes, Mouse liver microsome” value in series [2] is “A”. In series [3], the remaining activity at 0.1 µM was less than 70%. The “% C-Met kinase activity remains” value in series [4] is on record as “B (the percentage is greater or equal to 70%)”.
